Assay results taken from paper PMC8213153 (PLoS ONE, 2021).
≈ marks a conversion by molar mass, not a printed value. Like-named read-outs stand apart in the source and are kept apart here.

Key:
Format in all cases: cell-based
TNF-α = TNF-α level of virus-infected Vero cells (ELISA)
Experimental: (§1) To enable measurement of IL-6, IL-10 and TNF-α levels, the culture medium of the treated cells was collected in sterile micro-tubes and centrifuged at 3,500 rpm for 20 minutes. The supernatants were carefully collected and diluted with aquadest at a 1:5 volume ratio and vortexed until homogenous. The samples were deposited onto a well-plate, added to ELISA reagents (Bioassay Technology Laboratory, Shanghai, China), and incubated at 37°C for 60 minutes. Reagent substrate solution was then added to the well and incubated for ten minutes at 37°C. The samples were measured for antigen concentration using the optical density (OD) plotted into the standard curves of IL-6, IL-10, and TNF-α.

[1] = Cytotoxicity (MTT) assay of single and dual combinatory drugs; settings: human
Experimental: Each tablet containing drugs was triturated and mixed until homogenous. Approximately 50 mg equivalent mass of drugs were weighed and added to dimethyl sulfoxide in order to solubilize the drugs. The suspension was sonicated in a water bath for 15 minutes before being added to Rosewell Park Memorial Institute (RPMI) media, sonicated again and vortexed to mix it until homogenous. The suspension was then filtered through a polycarbonate membrane with a pore size of 0.45 μm and then a pore size of 0.22 μm under aseptic conditions. The filtrate was mixed with 10% foetal bovine serum and penicillin streptomycin before being vortexed to produce a homogenous mixture to be used as a stock solution. The samples were prepared by diluting the stock solution of each drug with RPMI complete media at an appropriate level of dilution to produce a determined concentration. The dual combinatory drugs mixtures were prepared by mixing appropriate amounts of two drug stock solutions in order to produce a final concentration at the required level. The combinatory drugs were evaluated at both constant and non-constant ratios to evaluate their effects on the cytotoxicity, including; antagonistic, synergistic, or additive. A constant ratio of the mixture was achieved by adding drug solutions at the same ratio, thereby increasing each drug concentration, to produce dose escalation. In contrast, at a non-constant ratio, a fixed determined concentration of drug was added to increased doses of other drug solution in order to produce different levels of drug concentration.
The cytotoxic concentration (CC50) of drugs was performed by means of MTT assay at the Stem Cell Research and Development Center, Universitas Airlangga using human umbilical cord mesenchymal stem cells which had been obtained from human placenta tissue as approved by the Ethical Committee of Universitas Airlangga Hospital (Certificate number 101/KEH/2019 dated January 10, 2019). The cells were prepared as the primary cell culture and used for the cytotoxicity assay because of their sensitivity to chemicals. Cells were seeded into 96-well microplates at a concentration of 1x10^3 cells/well in 100 μL Alpha Minimum Essentials Medium (α-MEM, Gibco, USA) supplemented with 10% foetal bovine serum, 1% penicillin-streptomycin and 1% amphotericin-B. The plates were then incubated in a CO2 incubator at 37°C with 5% CO2 for 24 hours, at which point, the supernatant was replaced with α-MEM containing drugs at each concentration and incubated for a further 48 hours. Approximately 25μL of 3-(4,5-Dimethylthiazol-2-yl)-2,5-diphenyl tetrazolium-bromide (MTT) reagent at a concentration of 5mg/mL was subsequently added to each well and incubated for four hours at 37°C with 5% CO2. Purple formazan crystals were formed and observed under an inverted microscope. Dimethyl sulfoxide was added to each well with the complete solubilisation of formazan crystals subsequently being observed. The greater the number of formazan crystals formed, the lower the toxicity of the samples which were read for optical density of formazan using a multi reader at a measurement wavelength of 595 nm (Promega Glomax, USA). The CC50 value was analyzed by CompuSyn software (the ComboSyn Inc., accessed from www.combosyn.com).
In this study, the cytotoxicity assay was evaluated for single and dual combinatory drugs during a period of 48 hours of drug incubation. This assay was intended to evaluate the toxicity of dual combinatory drugs on normal cells. The combination ratios were calculated taking into consideration the usual therapeutic doses and plasma peak concentrations of the drugs. To determine this cytotoxicity, the drugs were mixed at both constant and non-constant ratios.

IL-10 = IL-10 level of virus-infected Vero cells (ELISA)
Experimental: as §1

IL-6 = IL-6 level of virus-infected Vero cells (ELISA)
Experimental: as §1

SARS-CoV-2 virus = test: microbe, parasite or virus in culture; settings: for IC50: Severe acute respiratory syndrome coronavirus 2, Vero
[2] = FAVIPIRAVIR-AZITHROMYCIN series, read-out: Cell Viability (%)
[3] = HYDROXYCHLOROQUINE-AZITHROMYCIN series, read-out: Cell Viability (%)
[4] = LOPIRITO-AZITHROMYCIN series, read-out: Viability Cell (%)
[5] = HYDROXYCHLOROQUINE-DOXYCYCLINE series, read-out: Cell viability (%)
[6] = LOPIRITO-DOXYCYCLINE series, read-out: Cell Viability (%)

Structure (SMILES): CC[C@H]1OC(=O)[C@H](C)[C@@H](O[C@H]2C[C@@](C)(OC)[C@@H](O)[C@H](C)O2)[C@H](C)[C@@H](O[C@@H]2O[C@H](C)C[C@H](N(C)C)[C@H]2O)[C@](C)(O)C[C@@H](C)CN(C)[C@H](C)[C@@H](O)[C@]1(C)O [AZI, Azithromycin]
- TNF-α (TNF-α; 15 μg/mL, 24-h): 6.994 ± 1.32 pg/mL
- TNF-α (TNF-α; 15 μg/mL, 48-h): 478 ± 1.50 pg/mL
- TNF-α (TNF-α; 15 μg/mL, 72-h): 777.34 ± 1.67 pg/mL
- TNF-α (TNF-α; 62.5 μg/mL, 24-h): 86.00 ± 2.84 pg/mL
- TNF-α (TNF-α; 62.5 μg/mL, 48-h): 381.30 ± 1.28 pg/mL
- TNF-α (TNF-α; 62.5 μg/mL, 72-h): 641.33 ± 0.00 pg/mL
- TNF-α (TNF-α; 24, 48, and 72 hours, cell without concentration): No effects
- TNF-α levels (in words) (TNF-α; Table 5): no effects
- viability at 48 h, 0.2 μg/mL [1, 2]: 115%
- viability at 48 h, 2 μg/mL [1, 2]: 107%
- viability at 48 h, 10 μg/mL [1, 2]: 110%
- viability at 48 h, 100 μg/mL [1, 2]: 139%
- viability at 48 h, 400 μg/mL [1, 2]: 90.9%
- viability at 48 h, 2 μg/mL [1, 3]: 94.2%
- viability at 48 h, 10 μg/mL [1, 3]: 104%
- viability at 48 h, 100 μg/mL [1, 3]: 110%
- viability at 48 h, 400 μg/mL [1, 3]: 68.9%
- viability at 48 h, 0.2 μg/mL [1, 4]: 84.7%
- viability at 48 h, 2 μg/mL [1, 4]: 81.2%
- viability at 48 h, 10 μg/mL [1, 4]: 84.6%
- viability at 48 h, 100 μg/mL [1, 4]: 89.5%
- viability at 48 h, 400 μg/mL [1, 4]: 81.2%
- IL-10 (IL-10; 15 μg/mL, 24-h): 32.78 ± 1.18 pg/mL
- IL-10 (IL-10; 15 μg/mL, 48-h): 152.34 ± 1.72 pg/mL
- IL-10 (IL-10; 15 μg/mL, 72-h): 609.92 ± 1.48 pg/mL
- IL-10 (IL-10; 15 μg/mL, 24h): ↗↗ (15 μg/mL; 24h)
- IL-10 (IL-10; 62.5 μg/mL, 24-h): 53.50 ± 1.85 pg/mL
- IL-10 (IL-10; 62.5 μg/mL, 48-h): 91.92 ± 1.45 pg/mL
- IL-10 levels (in words) (IL-10; Table 5): increased
- IL-6 (IL-6; 15 μg/mL, 24-h): 14.55 ± 2.22 ng/L
- IL-6 (IL-6; 15 μg/mL, 72-h): 565.92 ± 0.00 ng/L
- IL-6 (IL-6; 62.5 μg/mL, 24-h): 15.92 ± 0.57 ng/L
- IL-6 (IL-6; 62.5 μg/mL, 48-h): 33.47 ± 3.98 ng/L
- IL-6 (IL-6; 62.5 μg/mL, 72-h): 529.11 ± 0.95 ng/L
- IL-6 (in words) (IL-6; Table 5): reduced
- Virus Titer (SARS-CoV-2 virus; 15 μg/mL, 24-h): 38.18 viral protein fg/mL
- Virus Titer (SARS-CoV-2 virus; 62.5 μg/mL, 48-h): 38.78 viral protein fg/mL
- IC50 (SARS-CoV-2 virus; 24h, MoI 0.04): 51.9 µg/mL (≈ 69.3 µM)
- IC50 (SARS-CoV-2 virus; 48h, MoI 0.04): 19.6 µg/mL (≈ 26.2 µM)
- IC50 (SARS-CoV-2 virus; 72h, MoI 0.04): < 10 µg/mL

Structure (SMILES): C[C@H]1c2cccc(O)c2C(=O)C2=C(O)[C@]3(O)C(=O)C(C(N)=O)=C(O)[C@@H](N(C)C)[C@@H]3[C@@H](O)[C@@H]21 [DOXY, Doxycycline]
- TNF-α (TNF-α; 1 μg/mL, 24-h): 1.98 ± 0.00 pg/mL
- TNF-α (TNF-α; 1 μg/mL, 48-h): 408.19 ± 0.77 pg/mL
- TNF-α (TNF-α; 1 μg/mL, 72-h): 511.16 ± 3.09 pg/mL
- TNF-α (TNF-α; 1 μg/mL, 24h): ↘↘ (1 μg/mL; 24h)
- TNF-α (TNF-α; 15 μg/mL, 24-h): 1.98 ± 0.84 pg/mL
- TNF-α (TNF-α; 15 μg/mL, 48-h): 408.19 ± 0.84 pg/mL
- TNF-α (TNF-α; 15 μg/mL, 72-h): 529.12 ± 0.46 pg/mL
- viability at 48 h, 0.2 μg/mL [1, 5]: 96.9%
- viability at 48 h, 2 μg/mL [1, 5]: 112%
- viability at 48 h, 10 μg/mL [1, 5]: 117%
- viability at 48 h, 100 μg/mL [1, 5]: 120%
- viability at 48 h, 400 μg/mL [1, 5]: 96.5%
- CC50 at 48 h ([1]; LOPIRITO-DOXY experiment (Fig 6), 48 hours, CompuSyn, n = 3, read-out: CC50): 16500 µg/mL
- viability at 48 h, 0.2 μg/mL [1, 6]: 103%
- viability at 48 h, 2 μg/mL [1, 6]: 104%
- viability at 48 h, 10 μg/mL [1, 6]: 105%
- viability at 48 h, 100 μg/mL [1, 6]: 92.8%
- viability at 48 h, 400 μg/mL [1, 6]: 91.7%
- IL-10 (IL-10; 1 μg/mL, 24-h): 35.31 ± 0.22 pg/mL
- IL-10 (IL-10; 1 μg/mL, 48, 72h): ↗↗ (1 μg/mL; 48, 72h)
- IL-10 (IL-10; 1 μg/mL, 48-h): 219.74 ± 0.08 pg/mL
- IL-10 (IL-10; 1 μg/mL, 72-h): 415.82 ± 0.23 pg/mL
- IL-10 (IL-10; 15 μg/mL, 24-h): 35.31 ± 1.53 pg/mL
- IL-10 (IL-10; 15 μg/mL, 48-h): 219.74 ± 1.41 pg/mL
- IL-10 (IL-10; 15 μg/mL, 72-h): 702.97 ± 0.07 pg/mL
- IL-6 (IL-6; 1 μg/mL, 24-h): 21.06 ± 1.43 ng/L
- IL-6 (IL-6; 1 μg/mL, 48-h): 36.93 ± 0.93 ng/L
- IL-6 (IL-6; 1 μg/mL, 72-h): 40.56 ± 0.56 ng/L
- IL-6 (IL-6; 1 μg/mL, 24h): ↘↘ (1 μg/mL; 24h)
- IL-6 (IL-6; 15 μg/mL, 24-h): 13.34 ± 0.86 ng/L
- IL-6 (IL-6; 15 μg/mL, 48-h): 37.98 ± 0.94 ng/L
- IL-6 (IL-6; 15 μg/mL, 72-h): 43.01 ± 0.05 ng/L
- Virus Titer (SARS-CoV-2 virus; 1 μg/mL, 24-h): 38.42 viral protein fg/mL
- Virus Titer (SARS-CoV-2 virus; 15 μg/mL, 24-h): 36.90 viral protein fg/mL
- Virus Titer (SARS-CoV-2 virus; 15 μg/mL, 48-h): 37.85 viral protein fg/mL
- Virus Titer (SARS-CoV-2 virus; 15 μg/mL, 72-h): 39.15 viral protein fg/mL
- Drug concentration that produced an undetected virus copy number (SARS-CoV-2 virus; MoI 0.04, at 24, 48, and/or 72 hours' incubation): 37.5 µg/mL
- IC50 (SARS-CoV-2 virus; 24h, MoI 0.04): 18 µg/mL (≈ 40.5 µM)
- IC50 (SARS-CoV-2 virus; 48h, MoI 0.04): 4.7 µg/mL (≈ 10.6 µM)
- IC50 (SARS-CoV-2 virus; 72h, MoI 0.04): 0.4 µg/mL (≈ 0.9 µM)
- Results (virus detection) (SARS-CoV-2 virus; at the drug concentration of the same line of Table 4, MoI 0.04): 24, 48, 72h virus undetected
